# Legend:
# [1] = tested on: Erysiphe graminis f.sp. hordei; assay: Erysiphe test (barley)/curative; format: in vivo; conditions: curative (sprayed 48 hours after inoculation), application rate 250 g/ha, evaluated 7 days after inoculation
# [2] = tested on: Fusarium nivale var. majus; assay: Fusarium nivale (var. majus) test (wheat)/protective; conditions: protective, application rate 250 g/ha, evaluated 4 days after inoculation
# Method: Fusarium nivale (var. Majus) Test (Wheat)/protective
# (§1) Solvent: 10 parts by weight of N-methylpyrrolidone
# (§2) Emulsifier: 0.6 part by weight of alkylaryl polyglycol ether
# After the spray coating has dried on, the plants are sprayed with a conidia suspension of Fusarium nivale var. majus.
# (§3) The plants are placed in a greenhouse at a temperature of about 15° C. and a relative atmospheric humidity of about 100% under translucent incubation hoods.
# (§4) The test is evaluated 4 days after inoculation.
# [3] = tested on: Fusarium nivale var. nivale; assay: Fusarium nivale (var. nivale) test (wheat)/curative; conditions: curative (sprayed 24 hours after inoculation), application rate 250 g/ha, evaluated 4 days after inoculation
# Method: Fusarium nivale (var. nivale) Test (Wheat)/curative
# Solvent: 100 parts by weight of dimethylformamide
# Emulsifier: 0.25 part by weight of alkylaryl polyglycol ether
# To test for curative activity, young plants are sprayed with a conidia suspension of Fusarium nivale var. nivale.
# The plants remain in an incubation cabin at 15° C. and a relative atmospheric humidity of 100% for 24 hours.
# After the spray coating has dried on, the plants remain in a greenhouse under translucent incubation hoods at a temperature of about 15° C. and a relative atmospheric humidity of about 100%.
# as §4
# [4] = tested on: Fusarium nivale var. nivale; assay: Fusarium nivale (var. nivale) test (wheat)/protective; conditions: protective, application rate 250 g/ha, evaluated 4 days after inoculation
# Method: Fusarium nivale (var. nivale) Test (Wheat)/protective
# as §1, §2
# After the spray coating has dried on, the plants are sprayed with a conidia suspension of Fusarium nivale var. nivale.
# as §3, §4
# [5] = tested on: Erysiphe graminis f.sp. hordei; assay: Erysiphe test (barley)/protective; format: in vivo; conditions: protective, application rate 250 g/ha, evaluated 7 days after inoculation
# Method: The test is evaluated 7 days after the inoculation.
# [6] = tested on: Pseudocercosporella herpotrichoides; assay: Pseudocercosporella herpotrichoides test (wheat)/protective; format: in vivo; conditions: protective, application rate 250 g/ha, evaluated 21 days after inoculation
# Method: The test is evaluated 21 days after inoculation.
structure (smiles),measurement,setting,value
"CO/N=C(/C1=NOCCO1)c1ccccc1Oc1ncnc(Oc2ccccc2Cl)c1F [Example 1, 3-{1-[2-(4-<2-chlorophenoxy>-5-fluoropyrimid-6-yloxy)-phenyl]-1-(methoximino)-methyl}-5,6-dihydro-1,4,2-dioxazine]",efficacy in comparison with the untreated control,[1],100%
CON=C(C1=NOCCO1)c1ccccc1Oc1ncnc(Oc2cc(C)cc(C)c2C)c1F [Example 14],efficacy in comparison with the untreated control,[2],100%
C=C(C)Cc1ccccc1Oc1ncnc(Oc2ccccc2C(=NOC)C2=NOCCO2)c1F [Example 31],efficacy in comparison with the untreated control,[3],100%
CON=C(C1=NOCCO1)c1ccccc1Oc1ncnc(Oc2ccccc2OCc2ccccc2)c1F [Example 33],efficacy in comparison with the untreated control,[2],100%
CCCc1ccccc1Oc1ncnc(Oc2ccccc2C(=NOC)C2=NOCCO2)c1F [Example 34],efficacy in comparison with the untreated control,[3],100%
same,efficacy in comparison with the untreated control,[4],100%
CON=C(C1=NOCCO1)c1ccccc1Oc1ncnc(Oc2cccc3c2CC(C)(C)O3)c1F [Example 42],efficacy in comparison with the untreated control,[2],100%
CON=C(C1=NOCCO1)c1ccccc1Oc1ncnc(Oc2ccccc2C2OCC(C)(C)CO2)c1F [Example 59],efficacy in comparison with the untreated control,[5],100%
CON=C(C1=NOCCO1)c1ccccc1Oc1ncnc(Oc2ccccc2C(=O)NCc2ccccc2)c1F [Example 69],efficacy in comparison with the untreated control,[6],100%
CON=C(C1=NOCCO1)c1ccccc1Oc1ncnc(Oc2ccccc2Cn2cncn2)c1F [Example 71],efficacy in comparison with the untreated control,[6],100%

# Reference: US6407233B1, “Halogen pyrimidines and its use thereof as parasite abatement means” (Bayer Aktiengesellschaft, priority 1996, dated 2002)
